# Assay results as given in US20250059182A1, “SOS1 INHIBITORS” (Mirati Therapeutics, Inc., priority 2021, published 2025).
# Where a name gives a salt, the structure may show the parent alone. Read-outs that look alike come from different tables or passages of the source.
# Columns and labels:
# [1] = biological target: T1, recombinant human SOS1 polypeptide (amino acids 560-1049) (Homo sapiens, UniProt Q07889); assay: HTRF displacement assay: inhibition of labeled tracer binding to SOS1; settings: Table A1, Morrison equation for competitive binding
# T1 construct: corresponding to amino acids 560-1049, expressed in E. Coli; made in house; host or cells: E. coli
# T1 sequence (Q07889 560-1049): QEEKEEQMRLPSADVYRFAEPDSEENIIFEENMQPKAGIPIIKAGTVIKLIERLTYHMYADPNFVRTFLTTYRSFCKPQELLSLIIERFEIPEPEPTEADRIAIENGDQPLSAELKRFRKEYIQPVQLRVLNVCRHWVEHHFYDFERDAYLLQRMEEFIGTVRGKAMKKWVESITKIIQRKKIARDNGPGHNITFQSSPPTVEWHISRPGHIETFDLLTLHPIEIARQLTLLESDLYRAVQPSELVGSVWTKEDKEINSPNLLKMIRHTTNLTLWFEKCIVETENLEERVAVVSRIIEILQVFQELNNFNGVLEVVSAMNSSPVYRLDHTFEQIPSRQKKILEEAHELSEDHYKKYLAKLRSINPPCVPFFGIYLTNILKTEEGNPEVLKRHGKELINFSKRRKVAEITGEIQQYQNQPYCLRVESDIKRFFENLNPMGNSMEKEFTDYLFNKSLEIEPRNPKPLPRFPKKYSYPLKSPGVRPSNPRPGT
# pERK in MKN1 cells = assay: pERK inhibition, In-Cell Western (LI-COR Odyssey), MKN1 cells; format: cell-based; settings: Homo sapiens
# Procedure, shortened: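 IC50 was fitted from % pERK inhibition, calculated as the GAPDH-normalised pERK signal of each well divided by the vehicle mean. Signal was imaged at 700 and 800 nm after fixation, methanol permeabilisation and dual antibody staining. Before fixation, MKN1 cells had received compound for about 0.5–1 h at 37 °C, top concentration 10 µM, nine 3-fold dilutions.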
# [2] = MKN-1, Table B1, MKN1 or H358 cells (table does not say which), 0.5-1 hour incubation, read-out: IC50 (nM), pERK inhibition
# [3] = MKN-1, read-out: IC50 (nM), pERK inhibition
smiles,measurement,setting,value
"Cc1c(C#N)cccc1[C@@H](C)Nc1nnc(C)c2c(C)nc(N3CCOCC3)cc12 [Example P-188, (R)-3-(1-((4,5-dimethyl-7-morpholinopyrido[3,4-d]pyridazin-1-yl)amino)ethyl)-2-methylbenzonitrile]",Ki,[1],2.5 nM
same,IC50,pERK in MKN1 cells; [2],49.1 nM
"Cc1c(C#N)cccc1[C@@H](C)Nc1nnc(C)c2c(C)nc(N(C)[C@H]3CCN(C)C3)cc12 [Example P-190, 3-((R)-1-((4,5-dimethyl-7-(methyl((S)-1-methylpyrrolidin-3-yl)amino)pyrido[3,4-d]pyridazin-1-yl)amino)ethyl)-2-methylbenzonitrile]",Ki,[1],0.572 nM
same,IC50,pERK in MKN1 cells; [2],63.6 nM
"Cc1c(C#N)cccc1[C@@H](C)Nc1nnc(C)c2c(C)nc(N3CCN(C)C(C)(C)C3)cc12 [Example P-191, (R)-3-(1-((4,5-dimethyl-7-(3,3,4-trimethylpiperazin-1-yl)pyrido[3,4-d]pyridazin-1-yl)amino)ethyl)-2-methylbenzonitrile]",Ki,[1],0.892 nM
same,IC50,pERK in MKN1 cells; [2],26 nM
"Cc1c(C#N)cccc1[C@@H](C)Nc1nnc(C)c2c(C)nc(N3C[C@H]4C[C@@H]3CN4C)cc12 [Example P-192, 3-((R)-1-((4,5-dimethyl-7-((1R,4R)-5-methyl-2,5-diazabicyclo[2.2.1]heptan-2-yl)pyrido[3,4-d]pyridazin-1-yl)amino)ethyl)-2-methylbenzonitrile]",Ki,[1],2.93 nM
same,IC50,pERK in MKN1 cells; [2],104 nM
"Cc1c(C#N)cccc1[C@@H](C)Nc1nnc(C)c2cc(Cl)c(N(C)[C@H]3CCN(C)C3)cc12 [Example P-193, 3-((R)-1-((6-chloro-4-methyl-7-(methyl((S)-1-methylpyrrolidin-3-yl)amino)phthalazin-1-yl)amino)ethyl)-2-methylbenzonitrile]",Ki,[1],1.47 nM
same,IC50,pERK in MKN1 cells; [2],512 nM
"Cc1c(C#N)cccc1[C@@H](C)Nc1nnc(C)c2cc(Cl)c(N(C)[C@@H]3CCN(C)C3)cc12 [Example P-194, 3-((R)-1-((6-chloro-4-methyl-7-(methyl((R)-1-methylpyrrolidin-3-yl)amino)phthalazin-1-yl)amino)ethyl)-2-methylbenzonitrile]",Ki,[1],5.27 nM
same,IC50,pERK in MKN1 cells; [2],231 nM
"Cc1c(C#N)cccc1[C@@H](C)Nc1nnc(C)c2cc(Cl)c(N(C)C)cc12 [Example P-195, (R)-3-(1-((6-chloro-7-(dimethylamino)-4-methylphthalazin-1-yl)amino)ethyl)-2-methylbenzonitrile formic acid salt]",Ki,[1],154 nM
same,IC50,pERK in MKN1 cells; [3],7130 nM
"Cc1c(C#N)cccc1[C@@H](C)Nc1nnc(C)c2cc(Cl)c(N(C)C[C@H]3CCCN3C)cc12 [Example P-196, 3-((R)-1-((6-chloro-4-methyl-7-(methyl(((R)-1-methylpyrrolidin-2-yl)methyl)amino)phthalazin-1-yl)amino)ethyl)-2-methylbenzonitrile formic acid salt]",Ki,[1],5.98 nM
same,IC50,pERK in MKN1 cells; [3],584 nM
"Cc1c(C#N)cccc1[C@@H](C)Nc1nnc(C)c2cc(Cl)c(N3CCS(=O)(=O)CC3)cc12 [Example P-197, (R)-3-(1-((6-chloro-7-(1,1-dioxidothiomorpholino)-4-methylphthalazin-1-yl)amino)ethyl)-2-methylbenzonitrile]",Ki,[1],8.97 nM
same,IC50,pERK in MKN1 cells; [2],204 nM
"Cc1c(C#N)cccc1[C@@H](C)Nc1nnc(C)c2cc(Cl)c(N3CCC34CN(C)C4)cc12 [Example P-198, (R)-3-(1-((6-chloro-4-methyl-7-(6-methyl-1,6-diazaspiro[3.3]heptan-1-yl)phthalazin-1-yl)amino)ethyl)-2-methylbenzonitrile]",Ki,[1],1.1 nM
same,IC50,pERK in MKN1 cells; [2],182 nM
"Cc1nnc(N[C@H](C)c2cccc(C(C)(F)F)c2F)c2cc(N(C)[C@@H]3CCN(C)C3)ncc12 [Example P-199, N1-((R)-1-(3-(1,1-difluoroethyl)-2-fluorophenyl)ethyl)-N7,4-dimethyl-N7-((R)-1-methylpyrrolidin-3-yl)pyrido[3,4-d]pyridazine-1,7-diamine]",Ki,[1],0.321 nM
same,IC50,pERK in MKN1 cells; [2],59.1 nM
"Cc1nnc(N[C@H](C)c2cccc(C(C)(F)F)c2F)c2cc(N(C)[C@H]3CCN(C)C3)ncc12 [Example P-200, N1-((R)-1-(3-(1,1-difluoroethyl)-2-fluorophenyl)ethyl)-N7,4-dimethyl-N7-((S)-1-methylpyrrolidin-3-yl)pyrido[3,4-d]pyridazine-1,7-diamine]",Ki,[1],0.517 nM
same,IC50,pERK in MKN1 cells; [2],6.77 nM
"Cc1c(C#N)cccc1[C@@H](C)Nc1nnc(C)c2cnc(N3CCOCC34CN(C)C4)cc12 [Example P-211, (R)-2-methyl-3-(1-((4-methyl-7-(2-methyl-8-oxa-2,5-diazaspiro[3.5]nonan-5-yl)pyrido[3,4-d]pyridazin-1-yl)amino)ethyl)benzonitrile]",Ki,[1],13.4 nM
same,IC50,pERK in MKN1 cells; [2],503 nM
"Cc1ccccc1[C@@H](C)Nc1nnc(C)c2cnc(N3CCOCC3)cc12 [Example P-212, (R)-4-methyl-7-morpholino-N-(1-(o-tolyl)ethyl)pyrido[3,4-d]pyridazin-1-amine]",Ki,[1],54.8 nM
same,IC50,pERK in MKN1 cells; [2],894 nM
"Cc1c(Br)cccc1[C@@H](C)Nc1nnc(C)c2cc(F)c(N3CCC34CN(C)C4)cc12 [Example P-214, (R)-N-(1-(3-bromo-2-methylphenyl)ethyl)-6-fluoro-4-methyl-7-(6-methyl-1,6-diazaspiro[3.3]heptan-1-yl)phthalazin-1-amine]",Ki,[1],0.262 nM
same,IC50,pERK in MKN1 cells; [2],156 nM
"CC(=O)N1CC2(CCN2c2cc3c(N[C@H](C)c4cccc(C#N)c4C)nnc(C)c3cn2)C1 [Example P-215, (R)-3-(1-((7-(6-acetyl-1,6-diazaspiro[3.3]heptan-1-yl)-4-methylpyrido[3,4-d]pyridazin-1-yl)amino)ethyl)-2-methylbenzonitrile]",Ki,[1],2.23 nM
same,IC50,pERK in MKN1 cells; [2],38.7 nM
"CC(=O)N1CC2(CCN2c2cc3c(N[C@H](C)c4cccc(C#N)c4C)nnc(C)c3cc2F)C1 [Example P-216, (R)-3-(1-((7-(6-acetyl-1,6-diazaspiro[3.3]heptan-1-yl)-6-fluoro-4-methylphthalazin-1-yl)amino)ethyl)-2-methylbenzonitrile formic acid salt]",Ki,[1],1.98 nM
same,IC50,pERK in MKN1 cells; [3],27.9 nM
"COCCN1CC2(CCN2c2cc3c(N[C@H](C)c4cccc(C#N)c4C)nnc(C)c3cn2)C1 [Example P-217, (R)-3-(1-((7-(6-(2-methoxyethyl)-1,6-diazaspiro[3.3]heptan-1-yl)-4-methylpyrido[3,4-d]pyridazin-1-yl)amino)ethyl)-2-methylbenzonitrile formic acid salt]",Ki,[1],0.762 nM
same,IC50,pERK in MKN1 cells; [3],43.1 nM
"COCCN1CC2(CCN2c2cc3c(N[C@H](C)c4cccc(C#N)c4C)nnc(C)c3cc2F)C1 [Example P-218, (R)-3-(1-((6-fluoro-7-(6-(2-methoxyethyl)-1,6-diazaspiro[3.3]heptan-1-yl)-4-methylphthalazin-1-yl)amino)ethyl)-2-methylbenzonitrile formic acid salt]",Ki,[1],0.786 nM
same,IC50,pERK in MKN1 cells; [3],60.3 nM
"Cc1c(C#N)cccc1[C@@H](C)Nc1nnc(C)c2cc(F)c(N3CCC34CN(CCO)C4)cc12 [Example P-219, (R)-3-(1-((6-fluoro-7-(6-(2-hydroxyethyl)-1,6-diazaspiro[3.3]heptan-1-yl)-4-methylphthalazin-1-yl)amino)ethyl)-2-methylbenzonitrile]",Ki,[1],0.665 nM
same,IC50,pERK in MKN1 cells; [2],41.1 nM
"Cc1c(C#N)cccc1[C@@H](C)Nc1nnc(C)c2cc(F)c(N3CCC34CN(CCC(=O)O)C4)cc12 [Example P-220, (R)-3-(1-(4-((1-(3-cyano-2-methylphenyl)ethyl)amino)-7-fluoro-1-methylphthalazin-6-yl)-1,6-diazaspiro[3.3]heptan-6-yl)propanoic acid]",Ki,[1],0.678 nM
same,IC50,pERK in MKN1 cells; [2],4110 nM
"CNc1cc2c(N[C@H](C)c3cccc(C#N)c3C)nnc(C)c2cc1F [Example P-221, (R)-3-(1-((6-fluoro-4-methyl-7-(methylamino)phthalazin-1-yl)amino)ethyl)-2-methylbenzonitrile]",Ki,[1],8.75 nM
same,IC50,pERK in MKN1 cells; [2],154 nM
"Cc1c(C#N)cccc1[C@@H](C)Nc1nnc(C)c2cc(F)c(N(C)C)cc12 [Example P-222, (R)-3-(1-((7-(dimethylamino)-6-fluoro-4-methylphthalazin-1-yl)amino)ethyl)-2-methylbenzonitrile]",Ki,[1],3.97 nM
same,IC50,pERK in MKN1 cells; [2],188 nM
"Cc1c(C#N)cccc1[C@@H](C)Nc1nnc(C)c2cc(F)c(N3CCC3)cc12 [Example P-223, (R)-3-(1-((7-(azetidin-1-yl)-6-fluoro-4-methylphthalazin-1-yl)amino)ethyl)-2-methylbenzonitrile formic acid salt]",Ki,[1],9.3 nM
same,IC50,pERK in MKN1 cells; [3],141 nM
"Cc1c(C#N)cccc1[C@@H](C)Nc1nnc(C)c2cnc(N3CCC3)cc12 [Example P-224, (R)-3-(1-((7-(azetidin-1-yl)-4-methylpyrido[3,4-d]pyridazin-1-yl)amino)ethyl)-2-methylbenzonitrile]",Ki,[1],3.62 nM
same,IC50,pERK in MKN1 cells; [2],41.4 nM
